From PubChem BioAssay (NCI)
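The compound was tested at five concentrations on cells cultured in 96-well plates, with a 48-hour exposure period. GI50: concentration for 50% inhibition of growth. TGI: concentration producing complete growth inhibition.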 Where a SMILES comes first, the peptide text is derived from it. [ ]: non-standard residue; d: D form. Phe(ol) = N[C@H](CO)Cc1ccccc1; Aib = CC(C)(N)C(=O)O

Legend:
Assay in all cases: growth of human tumour cells (NCI), 48 h; in the data active = GI50 below about 0.43 µM; inactive = the rest
SNB-75 CNS = test system: SNB-75 CNS
M14 melanoma = test system: M14 melanoma
HS 578T breast = test system: HS 578T breast
SK-MEL-28 melanoma = test system: SK-MEL-28 melanoma
NCI-H226 lung = test system: NCI-H226 lung
OVCAR-3 ovarian = test system: OVCAR-3 ovarian
OVCAR-5 ovarian = test system: OVCAR-5 ovarian
SK-OV-3 ovarian = test system: SK-OV-3 ovarian
RPMI-8226 leukemia = test system: RPMI-8226 leukemia
HCT-116 colon = test system: HCT-116 colon
U251 CNS = test system: U251 CNS
CCRF-CEM leukemia = test system: CCRF-CEM leukemia
NCI-H460 lung = test system: NCI-H460 lung
HL-60(TB) leukemia = test system: HL-60(TB) leukemia
TK-10 renal = test system: TK-10 renal
K-562 leukemia = test system: K-562 leukemia
MALME-3M melanoma = test system: MALME-3M melanoma
HOP-92 NSCLC = test system: HOP-92 NSCLC
LOX IMVI melanoma = test system: LOX IMVI melanoma
SR leukemia = test system: SR leukemia
MDA-MB-231 breast = test system: MDA-MB-231 breast
PC-3 prostate = test system: PC-3 prostate
HOP-62 NSCLC = test system: HOP-62 NSCLC
786-0 renal = test system: 786-0 renal
OVCAR-4 ovarian = test system: OVCAR-4 ovarian
MCF7 breast = test system: MCF7 breast
SW-620 colon = test system: SW-620 colon
MOLT-4 leukemia = test system: MOLT-4 leukemia
ACHN renal = test system: ACHN renal
BT-549 breast = test system: BT-549 breast
MDA-MB-435 = test system: MDA-MB-435
NCI/ADR-RES ovarian = test system: NCI/ADR-RES ovarian
T-47D breast = test system: T-47D breast
SK-MEL-5 melanoma = test system: SK-MEL-5 melanoma
OVCAR-8 ovarian = test system: OVCAR-8 ovarian
A498 renal = test system: A498 renal
HCC-2998 colon = test system: HCC-2998 colon
SF-539 CNS = test system: SF-539 CNS
SNB-19 CNS = test system: SNB-19 CNS
HT29 colon = test system: HT29 colon
EKVX NSCLC = test system: EKVX NSCLC
UO-31 renal = test system: UO-31 renal
UACC-257 melanoma = test system: UACC-257 melanoma
SF-295 CNS = test system: SF-295 CNS
UACC-62 melanoma = test system: UACC-62 melanoma
KM12 colon = test system: KM12 colon
SN12C renal = test system: SN12C renal
NCI-H522 lung = test system: NCI-H522 lung
A549 NSCLC = test system: A549 NSCLC
RXF 393 renal = test system: RXF 393 renal
NCI-H23 lung = test system: NCI-H23 lung
SK-MEL-2 melanoma = test system: SK-MEL-2 melanoma
IGROV1 ovarian = test system: IGROV1 ovarian
COLO 205 colon = test system: COLO 205 colon
HCT-15 colon = test system: HCT-15 colon
SF-268 CNS = test system: SF-268 CNS

CC(=O)NC(C)(C)C(=O)N1CCC[C@H]1C(=O)NC(C)(C)C(=O)N[C@@H](C)C(=O)NC(C)(C)C(=O)NC(C)(C)C(=O)N[C@@H](CCC(N)=O)C(=O)NC(C)(C)C(=O)N[C@H](C(=O)NC(C)(C)C(=O)NCC(=O)N[C@@H](CC(C)C)C(=O)NC(C)(C)C(=O)N1CCC[C@H]1C(=O)N[C@H](C(=O)NC(C)(C)C(=O)NC(C)(C)C(=O)N[C@@H](CCC(N)=O)C(=O)N[C@@H](CCC(N)=O)C(=O)N[C@H](CO)Cc1ccccc1)C(C)C)C(C)C (Ac-[Aib]P[Aib]A[Aib][Aib]Q[Aib]V[Aib]GL[Aib]PV[Aib][Aib]QQ[Phe(ol)])
3.43 µM: TGI (MALME-3M melanoma) | TGI (UACC-257 melanoma)
2.19 µM: TGI (RPMI-8226 leukemia)
2.31 µM: TGI (COLO 205 colon)
3.58 µM: TGI (HOP-92 NSCLC)
4.02 µM: TGI (SK-MEL-2 melanoma)
2.66 µM: TGI (BT-549 breast)
3.88 µM: TGI (T-47D breast)
> 4.25 µM: TGI (SNB-75 CNS) | TGI (M14 melanoma) | TGI (HS 578T breast) | TGI (SK-MEL-28 melanoma) | TGI (NCI-H226 lung) | TGI (OVCAR-3 ovarian) | TGI (OVCAR-5 ovarian) | TGI (SK-OV-3 ovarian) | TGI (HCT-116 colon) | TGI (U251 CNS) | TGI (CCRF-CEM leukemia) | TGI (NCI-H460 lung) | TGI (HL-60(TB) leukemia) | TGI (TK-10 renal) | TGI (K-562 leukemia) | TGI (LOX IMVI melanoma) | TGI (SR leukemia) | TGI (MDA-MB-231 breast) | TGI (PC-3 prostate) | TGI (HOP-62 NSCLC) | TGI (786-0 renal) | TGI (OVCAR-4 ovarian) | TGI (MCF7 breast) | TGI (SW-620 colon) | TGI (MOLT-4 leukemia) | TGI (ACHN renal) | TGI (MDA-MB-435) | TGI (NCI/ADR-RES ovarian) | TGI (OVCAR-8 ovarian) | TGI (A498 renal) | TGI (HCC-2998 colon) | TGI (SF-539 CNS) | TGI (SNB-19 CNS) | TGI (HT29 colon) | TGI (EKVX NSCLC) | TGI (UO-31 renal) | TGI (SF-295 CNS) | TGI (UACC-62 melanoma) | TGI (KM12 colon) | TGI (SN12C renal) | TGI (NCI-H522 lung) | TGI (A549 NSCLC) | TGI (NCI-H23 lung) | TGI (IGROV1 ovarian) | TGI (HCT-15 colon) | TGI (SF-268 CNS)
active: GI50 (RPMI-8226 leukemia) 0.296 µM | GI50 (MCF7 breast) 0.206 µM
1.96 µM: TGI (SK-MEL-5 melanoma)
inactive: GI50 (SNB-75 CNS) 0.788 µM | GI50 (M14 melanoma) 3.85 µM | GI50 (HS 578T breast) 1.49 µM | GI50 (SK-MEL-28 melanoma) 1.36 µM | GI50 (NCI-H226 lung) 1.32 µM | GI50 (OVCAR-3 ovarian) 1.29 µM | GI50 (OVCAR-5 ovarian) 1.73 µM | GI50 (SK-OV-3 ovarian) 1.28 µM | GI50 (HCT-116 colon) 1.58 µM | GI50 (U251 CNS) 1.07 µM | GI50 (CCRF-CEM leukemia) 2.11 µM | GI50 (NCI-H460 lung) 1.27 µM | GI50 (HL-60(TB) leukemia) 1.74 µM | GI50 (TK-10 renal) 3.92 µM | GI50 (K-562 leukemia) 1.88 µM | GI50 (MALME-3M melanoma) 1.04 µM | GI50 (HOP-92 NSCLC) 1.1 µM | GI50 (LOX IMVI melanoma) 1.57 µM | GI50 (SR leukemia) 2.2 µM | GI50 (MDA-MB-231 breast) 1.29 µM | GI50 (PC-3 prostate) 1.34 µM | GI50 (HOP-62 NSCLC) 3.07 µM | GI50 (786-0 renal) > 4.25 µM | GI50 (OVCAR-4 ovarian) 1.05 µM | GI50 (SW-620 colon) 2.55 µM | GI50 (MOLT-4 leukemia) 2.8 µM | GI50 (ACHN renal) > 4.25 µM | GI50 (BT-549 breast) 0.78 µM | GI50 (MDA-MB-435) 1.5 µM | GI50 (NCI/ADR-RES ovarian) > 4.25 µM | GI50 (T-47D breast) 1.12 µM | GI50 (SK-MEL-5 melanoma) 0.899 µM | GI50 (OVCAR-8 ovarian) 2.43 µM | GI50 (A498 renal) 1.64 µM | GI50 (HCC-2998 colon) 1.96 µM | GI50 (SF-539 CNS) 1.34 µM | GI50 (SNB-19 CNS) 1.16 µM | GI50 (HT29 colon) 1.26 µM | GI50 (EKVX NSCLC) 2.51 µM | GI50 (UO-31 renal) > 4.25 µM | GI50 (UACC-257 melanoma) 1.02 µM | GI50 (SF-295 CNS) 1.32 µM | GI50 (UACC-62 melanoma) 1.8 µM | GI50 (KM12 colon) 1.88 µM | GI50 (SN12C renal) 0.931 µM | GI50 (NCI-H522 lung) 0.948 µM | GI50 (A549 NSCLC) 1.69 µM | GI50 (RXF 393 renal) 0.777 µM | GI50 (NCI-H23 lung) 0.833 µM | GI50 (SK-MEL-2 melanoma) 1.33 µM | GI50 (IGROV1 ovarian) 3.06 µM | GI50 (COLO 205 colon) 0.831 µM | GI50 (HCT-15 colon) > 4.25 µM | GI50 (SF-268 CNS) 1.73 µM
2.48 µM: TGI (RXF 393 renal)
